In the CheMixHub drug solubility set:

Assay: xn = mol fraction of the nth substance listed, in the solute-free solvent

## CC(=O)Nc1ccc(OC(=O)c2ccccc2OC(C)=O)cc1 + CCO + O
278.15 K, x2 = 0.04165
  solubility (g/100 g solution): 0.00299
278.15 K, x2 = 0.08908
  solubility (g/100 g solution): 0.00839
278.15 K, x2 = 0.1436
  solubility (g/100 g solution): 0.0202
278.15 K, x2 = 0.2068
  solubility (g/100 g solution): 0.037
278.15 K, x2 = 0.2812
  solubility (g/100 g solution): 0.0604
278.15 K, x2 = 0.3698
  solubility (g/100 g solution): 0.082
278.15 K, x2 = 0.4772
  solubility (g/100 g solution): 0.108
278.15 K, x2 = 0.6101
  solubility (g/100 g solution): 0.134
278.15 K, x2 = 0.7788
  solubility (g/100 g solution): 0.157
283.15 K, x2 = 0.04165
  solubility (g/100 g solution): 0.00439
283.15 K, x2 = 0.08908
  solubility (g/100 g solution): 0.0122
283.15 K, x2 = 0.1436
  solubility (g/100 g solution): 0.0284
283.15 K, x2 = 0.2068
  solubility (g/100 g solution): 0.0513
283.15 K, x2 = 0.2812
  solubility (g/100 g solution): 0.0826
283.15 K, x2 = 0.3698
  solubility (g/100 g solution): 0.109
283.15 K, x2 = 0.4772
  solubility (g/100 g solution): 0.144
283.15 K, x2 = 0.6101
  solubility (g/100 g solution): 0.178
283.15 K, x2 = 0.7788
  solubility (g/100 g solution): 0.206
288.15 K, x2 = 0.04165
  solubility (g/100 g solution): 0.00634
288.15 K, x2 = 0.08908
  solubility (g/100 g solution): 0.0171
288.15 K, x2 = 0.1436
  solubility (g/100 g solution): 0.0401
288.15 K, x2 = 0.2068
  solubility (g/100 g solution): 0.0699
288.15 K, x2 = 0.2812
  solubility (g/100 g solution): 0.111
288.15 K, x2 = 0.3698
  solubility (g/100 g solution): 0.148
288.15 K, x2 = 0.4772
  solubility (g/100 g solution): 0.193
288.15 K, x2 = 0.6101
  solubility (g/100 g solution): 0.236
288.15 K, x2 = 0.7788
  solubility (g/100 g solution): 0.273
293.15 K, x2 = 0.04165
  solubility (g/100 g solution): 0.00913
293.15 K, x2 = 0.08908
  solubility (g/100 g solution): 0.0242
293.15 K, x2 = 0.1436
  solubility (g/100 g solution): 0.0539
293.15 K, x2 = 0.2068
  solubility (g/100 g solution): 0.0951
293.15 K, x2 = 0.2812
  solubility (g/100 g solution): 0.146
293.15 K, x2 = 0.3698
  solubility (g/100 g solution): 0.197
293.15 K, x2 = 0.4772
  solubility (g/100 g solution): 0.254
293.15 K, x2 = 0.6101
  solubility (g/100 g solution): 0.306
293.15 K, x2 = 0.7788
  solubility (g/100 g solution): 0.356
298.15 K, x2 = 0.04165
  solubility (g/100 g solution): 0.0133
298.15 K, x2 = 0.08908
  solubility (g/100 g solution): 0.0339
298.15 K, x2 = 0.1436
  solubility (g/100 g solution): 0.0744
298.15 K, x2 = 0.2068
  solubility (g/100 g solution): 0.127
298.15 K, x2 = 0.2812
  solubility (g/100 g solution): 0.19
298.15 K, x2 = 0.3698
  solubility (g/100 g solution): 0.255
298.15 K, x2 = 0.4772
  solubility (g/100 g solution): 0.327
298.15 K, x2 = 0.6101
  solubility (g/100 g solution): 0.396
298.15 K, x2 = 0.7788
  solubility (g/100 g solution): 0.458
303.15 K, x2 = 0.04165
  solubility (g/100 g solution): 0.0185
303.15 K, x2 = 0.08908
  solubility (g/100 g solution): 0.0464
303.15 K, x2 = 0.1436
  solubility (g/100 g solution): 0.0995
303.15 K, x2 = 0.2068
  solubility (g/100 g solution): 0.166
303.15 K, x2 = 0.2812
  solubility (g/100 g solution): 0.252
303.15 K, x2 = 0.3698
  solubility (g/100 g solution): 0.33
303.15 K, x2 = 0.4772
  solubility (g/100 g solution): 0.418
303.15 K, x2 = 0.6101
  solubility (g/100 g solution): 0.513
303.15 K, x2 = 0.7788
  solubility (g/100 g solution): 0.586
308.15 K, x2 = 0.04165
  solubility (g/100 g solution): 0.0258
308.15 K, x2 = 0.08908
  solubility (g/100 g solution): 0.0629
308.15 K, x2 = 0.1436
  solubility (g/100 g solution): 0.133
308.15 K, x2 = 0.2068
  solubility (g/100 g solution): 0.221
308.15 K, x2 = 0.2812
  solubility (g/100 g solution): 0.322
308.15 K, x2 = 0.3698
  solubility (g/100 g solution): 0.424
308.15 K, x2 = 0.4772
  solubility (g/100 g solution): 0.536
308.15 K, x2 = 0.6101
  solubility (g/100 g solution): 0.661
308.15 K, x2 = 0.7788
  solubility (g/100 g solution): 0.741
313.15 K, x2 = 0.04165
  solubility (g/100 g solution): 0.0351
313.15 K, x2 = 0.08908
  solubility (g/100 g solution): 0.0839
313.15 K, x2 = 0.1436
  solubility (g/100 g solution): 0.175
313.15 K, x2 = 0.2068
  solubility (g/100 g solution): 0.283
313.15 K, x2 = 0.2812
  solubility (g/100 g solution): 0.409
313.15 K, x2 = 0.3698
  solubility (g/100 g solution): 0.542
313.15 K, x2 = 0.4772
  solubility (g/100 g solution): 0.684
313.15 K, x2 = 0.6101
  solubility (g/100 g solution): 0.829
313.15 K, x2 = 0.7788
  solubility (g/100 g solution): 0.936
318.15 K, x2 = 0.04165
  solubility (g/100 g solution): 0.0474
318.15 K, x2 = 0.08908
  solubility (g/100 g solution): 0.112
318.15 K, x2 = 0.1436
  solubility (g/100 g solution): 0.232
318.15 K, x2 = 0.2068
  solubility (g/100 g solution): 0.366
318.15 K, x2 = 0.2812
  solubility (g/100 g solution): 0.514
318.15 K, x2 = 0.3698
  solubility (g/100 g solution): 0.69
318.15 K, x2 = 0.4772
  solubility (g/100 g solution): 0.863
318.15 K, x2 = 0.6101
  solubility (g/100 g solution): 1.04
318.15 K, x2 = 0.7788
  solubility (g/100 g solution): 1.18

## O=c1[nH]cc(F)c(=O)[nH]1 + CN(C)C=O + C1CCOC1
283.15 K, x2 = 0.1978
  solubility (g/100 g solution): 0.137
283.15 K, x2 = 0.3967
  solubility (g/100 g solution): 0.188
283.15 K, x2 = 0.5967
  solubility (g/100 g solution): 0.283
283.15 K, x2 = 0.7978
  solubility (g/100 g solution): 0.461
288.15 K, x2 = 0.1978
  solubility (g/100 g solution): 0.174
288.15 K, x2 = 0.3967
  solubility (g/100 g solution): 0.24
288.15 K, x2 = 0.5967
  solubility (g/100 g solution): 0.352
288.15 K, x2 = 0.7978
  solubility (g/100 g solution): 0.564
293.15 K, x2 = 0.1978
  solubility (g/100 g solution): 0.209
293.15 K, x2 = 0.3967
  solubility (g/100 g solution): 0.293
293.15 K, x2 = 0.5967
  solubility (g/100 g solution): 0.434
293.15 K, x2 = 0.7978
  solubility (g/100 g solution): 0.685
298.15 K, x2 = 0.1978
  solubility (g/100 g solution): 0.264
298.15 K, x2 = 0.3967
  solubility (g/100 g solution): 0.37
298.15 K, x2 = 0.5967
  solubility (g/100 g solution): 0.533
298.15 K, x2 = 0.7978
  solubility (g/100 g solution): 0.829
303.15 K, x2 = 0.1978
  solubility (g/100 g solution): 0.33
303.15 K, x2 = 0.3967
  solubility (g/100 g solution): 0.468
303.15 K, x2 = 0.5967
  solubility (g/100 g solution): 0.653
303.15 K, x2 = 0.7978
  solubility (g/100 g solution): 0.996
308.15 K, x2 = 0.1978
  solubility (g/100 g solution): 0.423
308.15 K, x2 = 0.3967
  solubility (g/100 g solution): 0.581
308.15 K, x2 = 0.5967
  solubility (g/100 g solution): 0.814
308.15 K, x2 = 0.7978
  solubility (g/100 g solution): 1.23
313.15 K, x2 = 0.1978
  solubility (g/100 g solution): 0.551
313.15 K, x2 = 0.3967
  solubility (g/100 g solution): 0.735
313.15 K, x2 = 0.5967
  solubility (g/100 g solution): 1.01
313.15 K, x2 = 0.7978
  solubility (g/100 g solution): 1.51
318.15 K, x2 = 0.1978
  solubility (g/100 g solution): 0.66
318.15 K, x2 = 0.3967
  solubility (g/100 g solution): 0.883
318.15 K, x2 = 0.5967
  solubility (g/100 g solution): 1.24
318.15 K, x2 = 0.7978
  solubility (g/100 g solution): 1.84
323.15 K, x2 = 0.1978
  solubility (g/100 g solution): 0.816
323.15 K, x2 = 0.3967
  solubility (g/100 g solution): 1.07
323.15 K, x2 = 0.5967
  solubility (g/100 g solution): 1.51
323.15 K, x2 = 0.7978
  solubility (g/100 g solution): 2.23
